Patent publication US20240210412A1, “SULFONYL-TRIAZOLE COMPOUNDS USEFUL AS LIGANDS AND INHIBITORS OF PROSTAGLANDIN REDUCTASE 2” (University of Virginia Patent Foundation, priority 2021, published 2024)

Biological target: T1, P25205 (Homo sapiens, UniProt P25205)
T1 construct: Probe-modified proteins from the soluble fraction were conjugated to a desthiobiotin-azide tag; endogenous in cells; host or cells: DM93 (SILAC)
T1 sequence (P25205 1-808): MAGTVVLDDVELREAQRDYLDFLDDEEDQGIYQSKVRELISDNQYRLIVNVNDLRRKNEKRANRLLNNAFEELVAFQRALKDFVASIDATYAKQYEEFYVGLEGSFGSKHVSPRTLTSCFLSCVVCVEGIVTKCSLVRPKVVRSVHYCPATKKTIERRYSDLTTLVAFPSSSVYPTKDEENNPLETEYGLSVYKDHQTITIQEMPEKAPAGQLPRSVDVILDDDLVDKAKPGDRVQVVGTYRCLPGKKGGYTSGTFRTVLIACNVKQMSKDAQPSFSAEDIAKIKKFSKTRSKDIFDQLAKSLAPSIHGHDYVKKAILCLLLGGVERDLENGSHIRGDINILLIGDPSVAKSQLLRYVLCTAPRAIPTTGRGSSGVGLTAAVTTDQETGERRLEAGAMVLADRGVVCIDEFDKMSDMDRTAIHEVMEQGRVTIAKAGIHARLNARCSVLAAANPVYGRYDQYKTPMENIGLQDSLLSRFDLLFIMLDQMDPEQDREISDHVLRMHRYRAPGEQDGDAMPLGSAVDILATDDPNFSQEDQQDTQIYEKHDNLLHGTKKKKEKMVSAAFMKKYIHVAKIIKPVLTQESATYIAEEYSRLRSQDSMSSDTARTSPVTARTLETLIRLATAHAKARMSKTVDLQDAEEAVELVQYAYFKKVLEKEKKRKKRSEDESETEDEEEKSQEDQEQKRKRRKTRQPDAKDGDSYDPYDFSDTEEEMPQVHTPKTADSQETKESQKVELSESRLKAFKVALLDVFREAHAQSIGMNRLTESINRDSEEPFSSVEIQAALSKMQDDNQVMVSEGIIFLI
Assay: SILAC LC-MS ABPP
Format: cell-based
Conditions: 25 μM 2 h, live DM93 cells
Protocol: Cells were grown to 90-95% confluence before being washed once with warm, sterile DPBS (1×, 5 mL), followed by addition of 10 mL of serum-free media (supplemented with 1% L-glutamine) containing either DMSO or SuTEx fragment (in DMSO) was added. Light cells were treated with DMSO vehicle while the heavy cells were treated with DMSO or SuTEx fragment (in DMSO) and incubated for 2 hrs. After 2 hrs, the cells were treated with SuTEx alkyne probe (HHS475, 10 μL of 1000× DMSO stock) and incubated for an additional 2 hrs. The media was aspirated and cells washed with cold PBS (5 mL) and harvested. Cells were spun at 500×g for 5 min at 4° C. followed by removal of supernatant. Pellets were resuspended in 1 mL of cold DPBS and spun at 1,400×g for 3 min at 4° C. followed by removal of supernatant. The cells were lysed in PBS by sonication and fractionated (100,000×g, 45 min, 4° C.).The light and heavy soluble fractions were diluted to 2.3 mg/mL in PBS and 432 μL were used for analysis (1 mg total protein). The probe-modified proteomes were conjugated to desthiobiotin-PEG3-azide (10 μl of 10 mM stock in DMSO; 200 μM final concentration) using TCEP (10 μl of fresh 50 mM stock in water, 1 mM final concentration), TBTA ligand (33 μl of a 1.7 mM 4:1 t-butanol/DMSO stock, 100 μM final concentration) and CuSO4 (10 μl of 50 mM stock, 1 mM final concentration). Samples were vortexed to mix and incubated for 1 hr at room temperature. The heavy and light proteomes were mixed 1:1 and the subsequent steps, including LC-MS/MS data analysis, were performed as previously described^[8a].
Coupling cell-based screens with chemical proteomics can facilitate the identification of target protein and binding sites that engage and are irreversibly modified by covalent ligands^[12]. In these assays, covalent ligands block SuTEx activity-based probe (ABP) labeling at protein sites, and the competition of probe labeling can be used to quantify potency and selectivity across the proteome^[10a]. To facilitate quantitative chemical proteomics, DM93 melanoma cells were cultured using stable isotopic labeling by amino acids in cell culture (SILAC)^[13]. Cells cultured in “light” media were treated with dimethyl sulfoxide (DMSO) vehicle while cells cultured in “heavy” media were treated with SuTEx ligand (25 μM, 2 hours, 37° C.). Next, cells were treated with HHS-475 probe (100 μM, 2 hours, 37° C.) followed by lysis and processing of proteomes for analysis. Probe-modified proteins from the soluble fraction were conjugated to a desthiobiotin-azide tag by copper-catalyzed azide-alkyne cycloaddition (CuAAC)^[14] followed by mixing of the light and heavy proteomes. The combined proteomes were digested with trypsin protease to produce probe-modified peptides, followed by enrichment and purification by avidin affinity chromatography. Probe-modified peptides were resolved, identified, and quantified by high-resolution liquid chromatography-tandem mass spectrometry (LC-MS/MS). Resultant data were analyzed as previously described^[8a, 10a]. Table 2, below, lists sites of modification targeted by sulfonyl-triazole compounds HHS-0101, HHS-0201, HHS-0301, HHS-0401, and HHS-0701. The format of the table is as follows: protein Uniprot accession number (see uniprot.org); tyrosine site (amino acid position) modified; treatment (sulfonyl-triazole compound identification number, followed by Y (where if multiple compounds modify the same site, the compounds are separated by vertical lines).

SMILES	liganded tyrosine site 159	liganded tyrosine site 188	liganded tyrosine site 147
O=C(c1ccc(S(=O)(=O)n2cncn2)cc1)N1CCC(c2ccccc2)CC1 [HHS-0701, (4-((1H-1,2,4-triazol-1-yl)sulfonyl)phenyl)(4-phenylpiperidin-1-yl)methanone]	HHS0701.Y (tyrosine sites that showed >80% reductions (SR >5) in probe labeling in cells treated with compounds (liganded sites))	HHS0701.Y (tyrosine sites that showed >80% reductions (SR >5) in probe labeling in cells treated with compounds (liganded sites))	–
O=C(NC1CCCCC1)c1ccc(S(=O)(=O)n2cncn2)cc1 [HHS-0301, 4-((1H-1,2,4-triazol-1-yl)sulfonyl)-N-cyclohexylbenzamide]	–	–	HHS0301.Y (tyrosine sites that showed >80% reductions (SR >5) in probe labeling in cells treated with compounds (liganded sites))
